Source: US8530489B2 (Vertex Pharmaceuticals Incorporated, priority 2006, dated 2013)

Experiments:
PLK1 = PLK1 (Homo sapiens, UniProt P53350); experiment: PLK1 Inhibition Assay I (radioactive-phosphate incorporation); format: biochemical; conditions: Ki(app); PLK1 Inhibition Assay I or II (table does not say which)
In short: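 Ki(app) values came from non-linear regression of initial rates after background subtraction, with phosphopeptide measured by phosphocellulose filter binding and scintillation counting. PLK1 at 2 nM was preincubated with compound (typically from 10 μM, 2-fold dilutions) for 10 min, then run 240 min at 25° C with 350 μM [γ-33P]ATP and 450 μM peptide substrate in HEPES pH 7.5 buffer.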

PLK2 = PLK2 (Homo sapiens, UniProt Q9NYY3); experiment: PLK2 Inhibition Assay (radioactive-phosphate incorporation); format: biochemical; conditions: selectivity ratio, PLK2 over PLK1
PLK2, sequence (Q9NYY3 whole entry): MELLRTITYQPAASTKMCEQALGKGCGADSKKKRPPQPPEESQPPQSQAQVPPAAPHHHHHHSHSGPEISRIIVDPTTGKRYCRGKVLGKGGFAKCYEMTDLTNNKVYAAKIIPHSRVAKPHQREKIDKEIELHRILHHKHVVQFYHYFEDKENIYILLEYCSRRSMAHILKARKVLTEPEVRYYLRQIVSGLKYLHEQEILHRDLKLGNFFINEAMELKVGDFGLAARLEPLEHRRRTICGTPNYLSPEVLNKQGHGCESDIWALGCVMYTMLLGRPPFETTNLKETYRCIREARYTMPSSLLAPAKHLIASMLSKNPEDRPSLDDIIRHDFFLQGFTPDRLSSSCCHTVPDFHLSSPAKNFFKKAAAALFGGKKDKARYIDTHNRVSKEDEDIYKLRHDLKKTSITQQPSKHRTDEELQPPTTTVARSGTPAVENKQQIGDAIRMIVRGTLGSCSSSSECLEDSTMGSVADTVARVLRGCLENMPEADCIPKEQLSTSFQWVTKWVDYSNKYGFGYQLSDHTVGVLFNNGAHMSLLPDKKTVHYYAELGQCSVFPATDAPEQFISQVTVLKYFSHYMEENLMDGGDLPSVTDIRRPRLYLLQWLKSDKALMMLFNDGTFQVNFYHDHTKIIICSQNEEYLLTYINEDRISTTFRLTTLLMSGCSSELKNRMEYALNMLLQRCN
Method: The compounds of the present invention are evaluated as inhibitors of human PLK kinase using the following assays.
Compounds were screened for their ability to inhibit PLK2 using a radioactive-phosphate incorporation assay. Assays were carried out in a mixture of 25 mM HEPES (pH 7.5), 10 mM MgCl2, 0.1% BSA, and 2 mM DTT. Final substrate concentrations were 200 μM [γ-33P]ATP (57 mCi 33P ATP/mmol ATP, Amersham Pharmacia Biotech/Sigma Chemicals) and 300 μM peptide (KKKISDELMDATFADQEAK) [SEQ ID:3]. Assays were carried out at 25° C. in the presence of 25 nM PLK2. An assay stock buffer solution was prepared containing all of the reagents listed above, with the exception of ATP and the test compound of interest. 30 μL of the stock solution was placed in a 96 well plate followed by addition of 2 μL of DMSO stock containing serial dilutions of the test compound (typically starting from a final concentration of 10 μM with 2-fold serial dilutions) in duplicate (final DMSO concentration 5%). The plate was pre-incubated for 10 minutes at 25° C. and the reaction initiated by addition of 8 μL [γ-33P]ATP (final concentration 200 μM).
The reaction was stopped after 90 minutes by the addition of 100 μL 0.14 M phosphoric acid. A multiscreen phosphocellulose filter 96-well plate (Millipore, Cat No. MAPHN0B50) was pretreated with 100 μL 0.2M phosphoric acid prior to the addition of 125 μL of the stopped assay mixture. The plate was washed with 4×200 μL 0.2 M phosphoric acid. After drying, 100 μL Optiphase ‘SuperMix’ liquid scintillation cocktail (Perkin Elmer) was added to the well prior to scintillation counting (1450 Microbeta Liquid Scintillation Counter, Wallac).
After removing mean background values for all of the data points, Ki(app) data were calculated from non-linear regression analysis of the initial rate data using the Prism software package (GraphPad Prism version 3.0cx for Macintosh, GraphPad Software, San Diego Calif., USA).

PLK1, sequence (P53350 whole entry): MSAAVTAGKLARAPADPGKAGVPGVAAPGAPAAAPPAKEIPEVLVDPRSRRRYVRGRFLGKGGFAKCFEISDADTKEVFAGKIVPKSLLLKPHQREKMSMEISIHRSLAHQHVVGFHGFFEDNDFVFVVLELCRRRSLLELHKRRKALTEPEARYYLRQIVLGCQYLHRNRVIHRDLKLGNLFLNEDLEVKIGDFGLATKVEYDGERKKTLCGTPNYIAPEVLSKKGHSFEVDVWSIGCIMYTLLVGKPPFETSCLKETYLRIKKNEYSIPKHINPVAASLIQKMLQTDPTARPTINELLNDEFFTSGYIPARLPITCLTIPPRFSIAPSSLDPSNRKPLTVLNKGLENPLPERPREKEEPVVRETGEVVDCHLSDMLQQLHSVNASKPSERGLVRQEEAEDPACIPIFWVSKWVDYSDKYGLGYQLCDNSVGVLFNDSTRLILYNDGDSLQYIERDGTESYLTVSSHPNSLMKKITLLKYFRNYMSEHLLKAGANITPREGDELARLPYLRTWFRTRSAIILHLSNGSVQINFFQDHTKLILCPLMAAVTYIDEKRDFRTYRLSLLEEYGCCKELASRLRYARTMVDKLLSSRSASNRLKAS

C[C@@H](Nc1ncc(C#N)c(-c2c[nH]c3ncc(C(F)(F)F)cc23)n1)c1ccc(N2CCNCC2)nc1 [Compound I-267, 2-((R)-1-(6-(piperazin-1-yl)pyridin-3-yl)ethylamino)-4-(5-(trifluoromethyl)-1H-pyrrolo[2,3-b]pyridin-3-yl)pyrimidine-5-carbonitrile]
Ki (PLK1): < 3 nM
Ki(PLK2)/Ki(PLK1) (PLK2): 1152

C[C@@H]1CN(c2ccc([C@@H](C)Nc3ncc(C#N)c(-c4c[nH]c5ncc(C(F)(F)F)cc45)n3)cn2)CCN1 [Compound I-274, 2-((R)-1-(6-((R)-3-methylpiperazin-1-yl)pyridin-3-yl)ethylamino)-4-(5-(trifluoromethyl)-1H-pyrrolo[2,3-b]pyridin-3-yl)pyrimidine-5-carbonitrile]
Ki (PLK1): < 3 nM
Ki(PLK2)/Ki(PLK1) (PLK2): 4074

C[C@@H]1CN(c2ccc([C@@H](C)Nc3ncc(C#N)c(-c4c[nH]c5ncc(C(F)(F)F)cc45)n3)cn2)C[C@H](C)N1 [Compound I-276, 2-((R)-1-(6-((3S,5R)-3,5-dimethylpiperazin-1-yl)pyridin-3-yl)ethylamino)-4-(5-(trifluoromethyl)-1H-pyrrolo[2,3-b]pyridin-3-yl)pyrimidine-5-carbonitrile]
Ki (PLK1): < 3 nM
Ki(PLK2)/Ki(PLK1) (PLK2): 2952

CC(C)(Nc1ncc(C#N)c(-c2c[nH]c3ncc(Cl)cc23)n1)C(=O)NCC(F)(F)F [IA-11, 2-(4-(5-chloro-1H-pyrrolo[2,3-b]pyridin-3-yl)-5-cyanopyrimidin-2-ylamino)-2-methyl-N-(2,2,2-trifluoroethyl)propanamide]
Ki (PLK1): 3 to 40 nM

C[C@@H](Nc1ncc(C#N)c(-c2c[nH]c3ncc(C(F)(F)F)cc23)n1)C(=O)NCCO [IA-12, (2R)-2-(5-cyano-4-(5-(trifluoromethyl)-1H-pyrrolo[2,3-b]pyridin-3-yl)pyrimidin-2-ylamino)-N-(2-hydroxyethyl)-propanamide]
Ki (PLK1): 3 to 40 nM

C[C@@H](Nc1ncc(C#N)c(-c2c[nH]c3ncc(C(F)(F)F)cc23)n1)C(=O)NC1CCCC1O (stereo partly drawn) [IA-13, (2R)-2-(5-cyano-4-(5-(trifluoromethyl)-1H-pyrrolo[2,3-b]pyridin-3-yl)pyrimidin-2-ylamino)-N-(2-hydroxycyclopentyl)propanamide]
Ki (PLK1): 3 to 40 nM

CC(C)(Nc1ncc(C#N)c(-c2c[nH]c3ncc(C(F)(F)F)cc23)n1)C(=O)NCCO [IA-14, 2-(5-cyano-4-(5-(trifluoromethyl)-1H-pyrrolo[2,3-b]pyridin-3-yl)pyrimidin-2-ylamino)-N-(2-hydroxyethyl)-2-methylpropanamide]
Ki (PLK1): > 40 nM

N#Cc1cnc(Sc2ccccc2)nc1-c1c[nH]c2ncc(C(F)(F)F)cc12 [II-0, 2-(phenylthio)-4-(5-(trifluoromethyl)-1H-pyrrolo[2,3-b]pyridin-3-yl)pyrimidine-5-carbonitrile]
Ki (PLK1): 3 to 40 nM

CSc1ncc(C#N)c(-c2c[nH]c3ncc(C(F)(F)F)cc23)n1 [II-1, 2-(methylthio)-4-(5-(trifluoromethyl)-1H-pyrrolo[2,3-b]pyridin-3-yl)pyrimidine-5-carbonitrile]
Ki (PLK1): > 40 nM

N#Cc1cnc(Sc2ccc(Cl)cc2)nc1-c1c[nH]c2ncc(C(F)(F)F)cc12 [II-2, 2-(4-chlorophenylthio)-4-(5-(trifluoromethyl)-1H-pyrrolo[2,3-b]pyridin-3-yl)pyrimidine-5-carbonitrile]
Ki (PLK1): > 40 nM

COc1ccc(Sc2ncc(C#N)c(-c3c[nH]c4ncc(C(F)(F)F)cc34)n2)cc1 [II-3, 2-(4-methoxyphenylthio)-4-(5-(trifluoromethyl)-1H-pyrrolo[2,3-b]pyridin-3-yl)pyrimidine-5-carbonitrile]
Ki (PLK1): > 40 nM

N#Cc1cnc(Sc2cccc(Br)c2)nc1-c1c[nH]c2ncc(C(F)(F)F)cc12 [II-4, 2-(3-bromophenylthio)-4-(5-(trifluoromethyl)-1H-pyrrolo[2,3-b]pyridin-3-yl)pyrimidine-5-carbonitrile]
Ki (PLK1): > 40 nM

N#Cc1cnc(Sc2ccccc2Cl)nc1-c1c[nH]c2ncc(C(F)(F)F)cc12 [II-5, 2-(2-chlorophenylthio)-4-(5-(trifluoromethyl)-1H-pyrrolo[2,3-b]pyridin-3-yl)pyrimidine-5-carbonitrile]
Ki (PLK1): > 40 nM

N#Cc1cnc(Sc2cccc(Cl)c2)nc1-c1c[nH]c2ncc(C(F)(F)F)cc12 [II-6, 2-(3-chlorophenylthio)-4-(5-(trifluoromethyl)-1H-pyrrolo[2,3-b]pyridin-3-yl)pyrimidine-5-carbonitrile]
Ki (PLK1): > 40 nM

N#Cc1cnc(Sc2ccccc2Br)nc1-c1c[nH]c2ncc(C(F)(F)F)cc12 [II-7, 2-(2-bromophenylthio)-4-(5-(trifluoromethyl)-1H-pyrrolo[2,3-b]pyridin-3-yl)pyrimidine-5-carbonitrile]
Ki (PLK1): > 40 nM

N#Cc1cnc(Sc2ccc(Br)cc2)nc1-c1c[nH]c2ncc(C(F)(F)F)cc12 [II-8, 2-(4-bromophenylthio)-4-(5-(trifluoromethyl)-1H-pyrrolo[2,3-b]pyridin-3-yl)pyrimidine-5-carbonitrile]
Ki (PLK1): > 40 nM

CCOc1cccc(Sc2ncc(C#N)c(-c3c[nH]c4ncc(C(F)(F)F)cc34)n2)c1 [II-9, 2-(3-ethoxyphenylthio)-4-(5-(trifluoromethyl)-1H-pyrrolo[2,3-b]pyridin-3-yl)pyrimidine-5-carbonitrile]
Ki (PLK1): > 40 nM

N#Cc1cnc(SCCc2ccccc2)nc1-c1c[nH]c2ncc(C(F)(F)F)cc12 [II-10, 2-(phenethylthio)-4-(5-(trifluoromethyl)-1H-pyrrolo[2,3-b]pyridin-3-yl)pyrimidine-5-carbonitrile]
Ki (PLK1): > 40 nM

COc1cccc(Sc2ncc(C#N)c(-c3c[nH]c4ncc(C(F)(F)F)cc34)n2)c1 [II-11, 2-(3-methoxyphenylthio)-4-(5-(trifluoromethyl)-1H-pyrrolo[2,3-b]pyridin-3-yl)pyrimidine-5-carbonitrile]
Ki (PLK1): > 40 nM

CC(C)Sc1ncc(C#N)c(-c2c[nH]c3ncc(C(F)(F)F)cc23)n1 [II-12, 2-(isopropylthio)-4-(5-(trifluoromethyl)-1H-pyrrolo[2,3-b]pyridin-3-yl)pyrimidine-5-carbonitrile]
Ki (PLK1): > 40 nM

N#Cc1cnc(SC2CCCCC2)nc1-c1c[nH]c2ncc(C(F)(F)F)cc12 [II-13, 2-(cyclohexylthio)-4-(5-(trifluoromethyl)-1H-pyrrolo[2,3-b]pyridin-3-yl)pyrimidine-5-carbonitrile]
Ki (PLK1): > 40 nM

COc1ccccc1Sc1ncc(C#N)c(-c2c[nH]c3ncc(C(F)(F)F)cc23)n1 [II-14, 2-(2-methoxyphenylthio)-4-(5-(trifluoromethyl)-1H-pyrrolo[2,3-b]pyridin-3-yl)pyrimidine-5-carbonitrile]
Ki (PLK1): > 40 nM

CCCC(CCO)Sc1ncc(C#N)c(-c2c[nH]c3ncc(C(F)(F)F)cc23)n1 (stereo not drawn) [II-15, 2-(1-hydroxyhexan-3-ylthio)-4-(5-(trifluoromethyl)-1H-pyrrolo[2,3-b]pyridin-3-yl)pyrimidine-5-carbonitrile]
Ki (PLK1): > 40 nM

CCCC(C)Sc1ncc(C#N)c(-c2c[nH]c3ncc(C(F)(F)F)cc23)n1 (stereo not drawn) [II-16, 2-(pentan-2-ylthio)-4-(5-(trifluoromethyl)-1H-pyrrolo[2,3-b]pyridin-3-yl)pyrimidine-5-carbonitrile]
Ki (PLK1): > 40 nM
